# Experimental data as given in patent US20250057951A1, “DISCERNIBLE CELL SURFACE PROTEIN VARIANTS OF CD117 FOR USE IN CELL THERAPY” (UNIVERSITÄT BASEL, priority 2021, published 2025).
# Assays:
# wild type TF-1 cells = assay: Inhibition of SCF-dependent proliferation, wild type TF-1 cells; assay type: cell-based, human; conditions: 100 ng/ml SCF; increasing concentrations; 3 days
# Protocol: (§1) SCF-dependent proliferation is another function of CD117. SCF-dependent proliferation was measured as follows: TF-1 cells were seeded at a cell concentration of 150 000 cells/ml in sterile, white cell culture treated plates in RPMI Media+10% FCS. Cells were treated with 100 ng/ml of SCF and a titration of various CD117 antibodies or an isotype control antibody at different concentrations. After 3 days of incubation a CellTiter-Glo 2.0 assay (Promega) was performed and luminescence was read in a luminometer (e.g. Envision or Phera Star plate readers).
# (§2) Next, proliferation of the variants was tested with increasing concentrations of RefMab #1 at a constant concentration of SCF (100 ng/ml). TF-1 cells were seeded at a cell concentration of 150 000 cells/ml in sterile, white cell culture treated plates with transparent bottom in RPMI+GlutaMax+10% FCS and a fix concentration of 100 ng/ml SCF in the media, Cells were treated with different concentrations of RefMab #1. After 3 days of incubation a CellTiter-Glo 2,0 assay (Promega) was performed, luminescence was read in a luminometer (Envision plate reader).
# CD117 = assay: Blocking of SCF-induced CD117 phosphorylation (Tyr719 ELISA), wild type TF-1 cells; assay type: cell-based, human; conditions: 0.5 ug/mL antibody or 500 nM avapritinib; 100 ng/ml SCF 5 minutes
# Protocol: (§3) SCF-dependent phosphorylation is another function of CD117. SCF-dependent phosphorylation was measured using TF-1 cells expressing CD117 (as shown in previous experiments). TF-1 cells were seeded at a concentration of 1 million cells/ml in 1 ml of Medium (RPMI1640 supplemented with GlutaMAX+10% heat inactivated FBS) in a 6-well plate. Cells were treated with 0.5 ug/mL antibody or 500 nM avapratinib. Cells were then treated with 100 ng/ml recombinant human SCF (1 mg/ml PeproGMP® Recombinant Human SCF) for 5 minutes, before cell collection. Cells were washed with ice-cold PBS, before resuspending cells in 250 μL Lysis Buffer (Lysis buffer from Signaling containing Protease Inhibitor and Phosphatase Inhibitor). Cells were flash frozen in liquid nitrogen and thawed at 37° C. twice, before freezing them at −80° C. until further usage. Undiluted samples were thawed and processed according to the manufacturers protocol for the PathScan® Phospho-c-Kit (Tyr719) Sandwich ELISA Kit (Cell Signaling). Absorbance (OD_450 nm) was assessed using the Envision (Perkin Elmer).
# (§4) TF-1 cells (wild type, and variants E73K, E73Y, D121K, S123F and S123K of CD117) were seeded at a concentration of 1 million cells/mL in 2 ml of Medium (RPMI1640 supplemented with GlutaMAX+10% heat inactivated FBS) in a 6-well plate. Cells were pre-treated with 0.5 μg/ml of antibodies Refmab #1-Ernie or Refmab #1-Bert for 30 minutes, before adding 100 ng/ml recombinant human SCF (1 mg/mL PeproGMP® Recombinant Human SCF) for 5 minutes. Cells were collected, washed once with ice-cold PBS and resuspended in 500 μL Lysis Buffer (Lysis buffer from Signaling containing Protease Inhibitor and Phosphatase Inhibitor). Cells were then flash frozen in liquid nitrogen and thawed at 37° C. twice, before freezing them at −80° C. until further usage. Undiluted samples were thawed and processed according to the manufacturers protocol for the PathScan Phospho-c-Kit (Tyr719) Sandwich ELISA Kit (Cell Signaling) or the Human c-Kit (CD117) ELISA Kit (Abcam). Absorbance (OD_450 nm) was assessed using the Envision (Perkin Elmer).
# [1] = tested on: TF-1 cells with knock-ins of CD117 variants; assay: Inhibition of SCF-dependent proliferation, TF-1 cells with CD117 variant knock-in; assay type: cell-based, human; conditions: 100 ng/ml SCF; increasing concentrations; 3 days; E73K; all variants tested
# Protocol: as §1
# CD117 wild-type TF-1 cells were compared to TF1 cells with a E73K knock in. […] Both KI1 and KI2 were obtained upon sorting the edited TF1 cells using the SONY MA900, removing any wild-type and knock out cells from the final subsets, thus yielding high purity of knock in.
# as §2
# variants of CD117 = assay: Blocking of SCF-induced CD117 phosphorylation (Tyr719 ELISA), TF-1 cells with CD117 variants; assay type: cell-based, human; conditions: 0.5 ug/mL antibody or 500 nM avapritinib; 100 ng/ml SCF 5 minutes
# Protocol: as §3, §4
# antibody Refmab #1 [2] = assay: Octet titration, steady state KD of CD117 D1-2-3 variants to Refmab #1; assay type: binding; conditions: nm shift higher than 0.1 nm counts as binding
# Sequence of antibody Refmab #1 (as listed by the source): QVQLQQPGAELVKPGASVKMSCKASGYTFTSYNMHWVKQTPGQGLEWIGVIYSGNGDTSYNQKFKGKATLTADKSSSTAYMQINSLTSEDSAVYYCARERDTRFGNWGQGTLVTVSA
# Sequence of antibody Refmab #1 (as listed by the source): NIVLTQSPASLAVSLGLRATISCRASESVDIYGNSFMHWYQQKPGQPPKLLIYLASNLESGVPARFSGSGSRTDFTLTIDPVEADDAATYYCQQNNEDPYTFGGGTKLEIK
# Protocol: To further characterize binding of Refmab #1 to CD117 D1-2-3 variants E73K, E73L, E73R, E73Y, D121H, D121K, S123K and S123F, the analytes were titrated at 7 different concentrations (from 2000 nM to 5 nM). Antibody Refmab #1 was captured by AHC biosensors for 300 s at 0.5 to 1 μg/mL. Association and dissociation to Refmab #1 was extended to 600 s and 1000 s, respectively. Steady state analysis was performed.
# Refmab #1 = Refmab #1 titration on engineered TF-1 cells (flow cytometry); assay type: binding; conditions: 5-0.00015 μg/mL antibody; 4° C.
# Protocol: Binding of Refmab #1 was assessed in a flow cytometry assay. TF-1 cells were seeded at a cell concentration of 1,000,000 cells/ml in FACS Buffer (PBS+2% FCS+1 mM EDTA). After a Fc blocking using 1:20 diluted TruStain (BioLegend, #422302) in FACS buffer for 15 minutes at 4° C., cells were washed twice with FACS buffer. Subsequently, a SR-1 titration was added to the cells using 5-0.00015 μg/mL antibody for 30 minutes at 4° C. on a plate shaker. Cells were washed twice with FACS buffer and a secondary labelled antibody (IgG (H+L) Cross-Adsorbed Goat anti-Human, Alexa Fluor® 488, Invitrogen, A11013) was added to the cells for 30 minutes at 4° C. on a plate shaker. Cells were washed twice with FACS buffer, before adding 1:100 diluted solution of 7AAD staining (cell viability) in FACS buffer for a couple of minutes and analyzing the cells using the Novocyte Quanteon (Agilent).
# TF-1 cells [3] = assay: SCF-dependent phosphorylation of CD117 variants in TF-1 cells (Tyr719 ELISA); assay type: cell-based, human; conditions: 1-20 ng/ml SCF for 5 minutes
# Protocol: TF-1 cells (wild type, knock out, and variants E73K, D121K and S123K of CD117) were seeded at a concentration of 1 million cells/ml in 2 ml of Medium (RPMI1640 supplemented with GlutaMAX+10% heat inactivated FBS) in a 6-well plate. Cells were treated with 1-20 ng/ml recombinant human SCF (1 mg/ml PeproGMP Recombinant Human SCF) for 5 minutes, before cell collection. Cells were washed with ice-cold PBS, before resuspending cells in 500 μL Lysis Buffer (Lysis buffer from Signaling containing Protease Inhibitor and Phosphatase Inhibitor). Cells were flash frozen in liquid nitrogen and thawed at 37° C. twice, before freezing them at −80° C. until further usage. Undiluted samples were thawed and processed according to the manufacturers protocol for the PathScan Phospho-c-Kit (Tyr719) Sandwich ELISA Kit (Cell Signaling). Absorbance (OD_450 nm) was assessed using the Envision (Perkin Elmer).
# antibody Refmab #1 [4] = assay: Octet screen: binding of CD117 D1-2-3 variants to captured Refmab #1; conditions: nm shift at end of association, top analyte concentration (500 nM)
# Procedure, shortened: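 Refmab #1 captured on anti-human Fc biosensors; human CD117 D1-2-3 wt or variants flowed as analyte at 500, 50 and 5 nM, 25° C., 300 s association/900 s dissociation, buffer-referenced. Binding level at top concentration, end of association, expressed as percent of wild type; 1:1 fits where possible.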
# TF-1 cells [5] = assay: SCF-dependent proliferation, SCF titration on TF-1 cells with CD117 variants (CellTiter-Glo); assay type: cell-based, human; conditions: for EC50 Average: average of two experiments; for EC50 Experiment #1 / EC50 Experiment #2: titration of SCF, 3 days, TF-1 cells with the CD117 variant
# Procedure, shortened: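 TF-1 cells expressing wildtype or variant CD117 seeded at 150 000 cells/ml in RPMI+GlutaMax+10% FCS and titrated with SCF. Viability read by CellTiter-Glo 2.0 luminescence after 3 days; EC50 determined from two experiments, each in triplicate.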
# human wild-type CD117 [6] = target: T1, human wild-type CD117 (human, UniProt P10721 26-976); assay: flow cytometry, HEK-293T with wt CD117 vs vector alone, IgG at 0.125 µg/mL
# T1 construct: also called wt CD117; KIT
# Protocol: Binding of the antibodies to the transfected cells and the optimal assay conditions were evaluated in 384-well format. Detection of cellular expression was measured via high-throughput flow cytometry. Serial dilutions of each antibody were tested for immunoreactivity against cells expressing CD117 or vector alone. The optimal screening concentration for each antibody was determined based on the raw signal values and signal-to-background calculations. Each point represents the mean of four replicates.
# human wild-type CD117 [7] = target: T1, human wild-type CD117; assay: flow cytometry, HEK-293T with wt CD117 vs vector alone, Fab at 1.00 µg/mL
molecule,measurement,setting,value
"Cn1cc(-c2cc3c(N4CCN(c5ncc([C@@](C)(N)c6ccc(F)cc6)cn5)CC4)ncnn3c2)cn1 [avapritinib, reference compound]",effect on SCF-dependent proliferation of wild type TF-1 cells,wild type TF-1 cells,no proliferation
same,"blocking of SCF-induced phosphorylation, wild type cells",CD117,blocked
same,effect on SCF-dependent proliferation of TF-1 cells with CD117 variants,[1],no proliferation
same,"blocking of SCF-induced phosphorylation, E73K variant",variants of CD117,still blocks
S123K: variant of human CD117 with substitution S123K,binding of Refmab #1 at 2000 nM variant,antibody Refmab #1 [2],No binding
same,Binding of Refmab #1 to TF-1 cells expressing the CD117 variant,Refmab #1,completely abolished
same,SCF-dependent phosphorylation at position Tyr719 of CD117,TF-1 cells [3],showed a SCF-dependent phosphorylation
same,binding to Refmab #1 compared to wild type,antibody Refmab #1 [4],particular strong decrease in binding
same,EC50 Average,TF-1 cells [5],3.54 ± 0.23 ng/mL
same,EC50 Experiment #1,TF-1 cells [5],3.76 ng/mL
same,EC50 Experiment #2,TF-1 cells [5],3.31 ng/mL
D121K: variant of human CD117 with substitution D121K,binding of Refmab #1 at 2000 nM variant,antibody Refmab #1 [2],No binding
same,Binding of Refmab #1 to TF-1 cells expressing the CD117 variant,Refmab #1,completely abolished
same,SCF-dependent phosphorylation at position Tyr719 of CD117,TF-1 cells [3],showed a SCF-dependent phosphorylation
same,binding to Refmab #1 compared to wild type,antibody Refmab #1 [4],particular strong decrease in binding
same,EC50 Average,TF-1 cells [5],3.70 ± 0.45 ng/mL
same,EC50 Experiment #1,TF-1 cells [5],4.15 ng/mL
same,EC50 Experiment #2,TF-1 cells [5],3.25 ng/mL
"Refmab #4 (antibody, V domains shown) VH: EVQLVESGGGLVQPGGSLRLSCAASGFSISVYMMHWVRQAPGKGLEWVASIYPYSGYTYYADSVKGRFTISADTSKNTAYLQMNSLRAEDTAVYYCARYVYHALDYWGQGTLVTVSS VL: DIQMTQSPSSLSASVGDRVTITCRASQSVSSAVAWYQQKPGKAPKLLIYSASSLYSGVPSRFSGSRSGTDFTLTISSLQPEDFATYYCQQWAVHSLITFGQGTKVEIKR",Signal:Background,human wild-type CD117 [6],7 ratio to background
"Refmab #5 (antibody, V domains shown) VH: EVRLVESEGGLVQPRSSMKLSCTASGFTFSDYYMAWVRQVPEKGLEWVANINYDGSSTYYLDSLKSRFIISRDNAKNILYLQMSSLKSEDTATYYCARGDYYGTTYWYFDVWGTGTTVTVSS VL: DIQMTQTTSSLSASLGDRVTISCRASQDISNYLNWYQQKPDGTVKLLIYYTSRLQSGVPSRFSGSGSGTDYSLTISNLEQEDIATYFCQQGKKLWSFGGGTKLEIKR",Signal:Background,human wild-type CD117 [6],10 ratio to background
"Refmab #4 Fab fragment (Fab, V domains shown) VH: EVQLVESGGGLVQPGGSLRLSCAASGFSISVYMMHWVRQAPGKGLEWVASIYPYSGYTYYADSVKGRFTISADTSKNTAYLQMNSLRAEDTAVYYCARYVYHALDYWGQGTLVTVSS VL: DIQMTQSPSSLSASVGDRVTITCRASQSVSSAVAWYQQKPGKAPKLLIYSASSLYSGVPSRFSGSRSGTDFTLTISSLQPEDFATYYCQQWAVHSLITFGQGTKVEIKR",Signal:Background,human wild-type CD117 [7],6 ratio to background
"Refmab #5 Fab fragment (Fab, V domains shown) VH: EVRLVESEGGLVQPRSSMKLSCTASGFTFSDYYMAWVRQVPEKGLEWVANINYDGSSTYYLDSLKSRFIISRDNAKNILYLQMSSLKSEDTATYYCARGDYYGTTYWYFDVWGTGTTVTVSS VL: DIQMTQTTSSLSASLGDRVTISCRASQDISNYLNWYQQKPDGTVKLLIYYTSRLQSGVPSRFSGSGSGTDYSLTISNLEQEDIATYFCQQGKKLWSFGGGTKLEIKR",Signal:Background,human wild-type CD117 [7],7 ratio to background
